Patent US11248023B2 (NEURACLE SCIENCE CO., LTD., priority 2015, dated 2022)
Square brackets hold non-standard residues; d marks the D form. Peptide text beside a SMILES is read from it. * marks the point of attachment. Fmoc = O=C(OCC1c2ccccc2-c2ccccc21)*; PEG = not defined here

Experiments:
GALR2 = biological target: T1, GALR2 (Homo sapiens, UniProt O43603); experiment: SRE-luc assay in HEK293-Gqi cells expressing GALR2; assay type: cell-based; settings: GALR2 versus GALR3
T1 construct: expressed in transfected cells
T1 sequence (O43603 1-387): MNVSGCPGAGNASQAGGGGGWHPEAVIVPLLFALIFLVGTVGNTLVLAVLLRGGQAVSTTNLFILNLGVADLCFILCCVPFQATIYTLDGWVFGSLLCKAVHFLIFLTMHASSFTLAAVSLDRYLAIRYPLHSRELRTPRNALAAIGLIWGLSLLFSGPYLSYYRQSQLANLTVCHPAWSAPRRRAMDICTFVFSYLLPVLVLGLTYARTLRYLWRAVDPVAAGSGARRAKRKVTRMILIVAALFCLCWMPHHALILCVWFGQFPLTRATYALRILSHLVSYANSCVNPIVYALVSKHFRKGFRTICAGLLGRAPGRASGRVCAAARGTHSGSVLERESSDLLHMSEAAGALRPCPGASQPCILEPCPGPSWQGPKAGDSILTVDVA
Text: The HEK293-Gqi stable cell line is a cell line in which the C-terminus of Gq is substituted with 3 amino acids of G to convert the signals of G to Gq signaling pathways. […] GALR subtypes 1 and 3 induce inhibitory G-coupled signaling, while GALR subtype 2 triggers stimulatory Gq-coupled signaling. This difference explains the use of the HEK293-Gqi stable cell line in which the C-terminus of Gq is substituted with 3 amino acids of G to convert the signals of Gi to Gq signaling pathways.
GALR subtypes 1 and 3 induce inhibitory G-coupled signaling, while GALR subtype 2 triggers stimulatory Gq-coupled signaling. This difference explains the use of the HEK293-Gqi stable cell line in which the C-terminus of Gq is substituted with 3 amino acids of G to convert the signals of G to Gq signaling pathways. The activities of the receptors were measured using an SRE-luc assay system designed to express luciferase (luc) by serum responsive element (SRE) promoters. Light caused by a reaction between expressed luciferase and luciferin as a substrate was detected using a luminometer so that receptor subtype-specific or ligand-specific cellular activities were observed. One day after HEK293-Gqi cells were seeded in 48-well plates at a density of 2×10^4 cells/well, plasmid DNA and SRE-luc plasmid DNA, which encode GALR2 and GALR3, respectively, were mixed in a ratio of 1:1 (75 ng+75 ng)/well, and treated with Effectene reagent (2 μl/well). After 3 h, media were replaced with DMEM media supplemented with 10% FBS. After 24 h, the DMEM media were replaced with FBS-free DMEM media. After 16 h, each constructed spexin-based mutant peptide was further incubated at 37° C. for 6 h. After this stage was finished, cells were washed with PBS and lysed by the addition of 100 μl of lysis buffer (0.1% triton X-100, 0.2M Tris, pH 8.0) at room temperature for 20 min. The luciferase activity was determined using a synergy 2 Multi-mode microplate reader (BioTek, Winooski, Vt., USA) with automatic injection of a luciferin solution (0.5 M MgCl2, 0.1 M ATP, 0.05 M D-luciferin, 1 M KH2PO4, pH 7.8).

neurons in the amygdala = experiment: c-fos immunohistochemistry, amygdala and other brain regions; assay type: in vivo, mice; settings: 0.4, 4, and 40 μg to the ventricle, 1-2 h
Protocol: Then, the brain was placed in a mold for brain tissue, transferred to and frozen in an isopentane solution kept cold on dry ice with an OCT composite containing 30% sucrose solution, and stored at −80° C. before use. The frozen brain tissue was sliced at 40 μm using a cryostat microtome, followed by immunohistochemistry.

[1] = Open field test (OFT) in anxiety-induced mice; assay type: in vivo; settings: vs DMSO
Text: The effect of the GALR2 agonist on anxiety reduction was investigated by the OFT for simultaneously measuring movement and anxiety (FIG. 13). The OFT is based on the behavior of mice that prefer to stay at the periphery rather than at the center of a quadrangular area. After mice were placed at the center of a quadrangular area, the proportion of the time spent in the center (“% time in center”), the proportion of the moving distance in the center (“% distance in center”), and the total moving distance (“total distance”) were measured for 10 min from the time when the animals moved to the periphery. The results were divided into two equal periods (5 min each) for analysis. 2-3 h after 4 μg of DMSO as a control or the GALR2 agonist dN1-Qu was administered to the lateral ventricle of animals, which had previously been evoked by repeated electric shocks to induce anxiety, anxiety and movement were measured.

[2] = Sucrose preference test (SPT); assay type: in vivo, mice; settings: 2 days
Protocol: The effect of the GALR2 agonist dN1-Qu on addiction reduction was investigated. In the same manner as in Example 3, a cannula was inserted into the lateral ventricle of mice. After injection of dimethyl sulfoxide (DMSO) and 0.4, 4, and 40 μg of dN1-Qu, the consumptions of water and 1% sucrose solution were measured for 2 days by the sucrose preference test (SPT) for addiction evaluation. According to this test, tap water and sucrose solution were filled in respective bottles and weighed before injection of the agonist. After free access to the fluids for 2 days, the bottles were weighed to compare the total consumption of the fluids and the percentage of the consumed sucrose solution in the total fluid consumption.

[3] = Stability in 100% fetal bovine serum, residual potency via IP3 production in GALR2-expressing cells; settings: 37° C., 0-72 h, IP3 production in GALR2-expressing cells
Protocol: The stability of the spexin-based mutant peptides was investigated. To this end, first, each modified mutant peptide at an initial concentration 10 μM was allowed to react in 100% fetal bovine serum (FBS) at 37° C. for 0, 3, 6, 12, 24, 48, and 72 h. Thereafter, the potencies of the mutant peptide toward GALR2 were determined via inositol 1,4,5-triphosphate (IP3) production in GALR2-expressing cells. For the IP3 assay, cells were seeded in 12-well plates at a density of 2.5×10^5 cells/well and then the next day, cells were treated with a mixture of 1 μg of GALR2-encoding plasmid DNA and Lipofectamine 2000 (Invitrogen). On day following treatment, cells were incubated in M199 media containing 1% FBS, 1% L-glutamine, 1% antibiotic, and myo-^3H inositol 1 μCi/well for 20 h to radioactively label inositol phosphate. After this stage was finished, cells were allowed to react in buffer A (140 mM NaCl, 20 mM Hepes, 4 mM KCl, 8 mM D-glucose, 1 mM MgCl2, 1 mM CaCl2), 1 mg/ml free fatty acid bovine serum albumin, and 10 mM LiCl at pH 7.2) for 30 min. After the mutant peptide was allowed to react in 100% FBS, cells were treated with the mutant peptide for 40 min at 37° C. Media was removed, and reactions were terminated by addition of 1 ml of 10 mM cold formic acid to each well. The plates were allowed to stand at 4° C. for 30 min. Then, the resulting extracts were transferred to 6-mL plastic tubes containing 500 μl AG1-8X anion exchange columns. The tubes were gently mixed with a vortexer, and the supernatants were removed from the labeled mixture. Two washes with 1 ml of triple-distilled water were performed followed by two additional washes with 60 mM ammonium formate/5 mM sodium tetraborate. The radioactively labeled mixture was eluted from the column with 1 ml of 1 M ammonium formate/0.1 M formic acid (1 mL), and 800 μl from the elution were taken from each tube and transferred into scintillation vials. Then, 2 ml of scintillation cocktail solution (Ultima Gold™, Perkin Elmer, Waltham Mass., USA) was added to each sample. The radioactivity of the mixture solution of the radioactively labeled mixture and the scintillation cocktail solution was measured using a TRI carb 2100TR liquid scintillation analyzer (Packard).

[4] = Dietary intake and body weight change after intracerebroventricular administration; assay type: in vivo, mice
Protocol: C57BL/6J black male mice (9 weeks of age) were acquired from Orientbio (www.orient.co.kr). Mice were housed in a cage at 20-24° C. and 40-70% relative humidity under a normal 12:12 light-dark cycle (lights onset at 8:00 am), with food and water available ad libitum. All experiments were designed to minimize the number of animals. Animals were anesthetized to minimize their suffering in accordance with the Guidelines for Ethical Care and Use of Experimental Animals, which were approved by the institutional animal care and use committee of Korea University. For intracerebroventricular injection, mice were anesthetized with sodium pentobarbital (50 mg/kg, i.p.), mounted on a stereotaxic apparatus, and implanted with a 26-gauge stainless steel cannula into the right side of the lateral ventricle. Two jewelry screws were implanted into the skull as anchors, and the whole assembly was affixed to the skull with dental cement. Mice were recovered at least 2 weeks before experimentation. The GALR2 agonist was administered using a Hamilton syringe at a rate of 0.5 μl/min. Dietary intakes and weight changes were determined by measuring the weights of feed and mice before agonist administration, measuring the weights of the feed over 1, 2, 4, 12, and 24 h, and comparing the weight of mice after 24 h with the initial weight.
The effects of the GALR2 agonist on feeding behaviors and changes in body weight were investigated by the following procedure. First, a cannula was inserted into the third ventricle.

[5] = Elevated plus maze (EPM) test; assay type: in vivo, mice; settings: 4 μg lateral ventricle, 2-3 h after administration, vs DMSO
Protocol: The effect of the GALR2 agonist dN1-Qu on recovery from anxiety disorder was investigated. In the same manner as in Example 3, a cannula was inserted into the lateral ventricle of mice. 2-3 h after dimethyl sulfoxide (DMSO) as a control or 4 μg of the GALR2 agonist dN1-Qu as an experimental group was administered, the elevated plus maze (EPM) test was conducted to measure anxiety/obsession. The EPM test uses a cross-shaped maze elevated above the floor with closed arms, open arms, and a center and is based on the behavior of mice that prefer to remain in the closed arms. Anxiety is judged to be lower when a larger number of mice remain in the open arms. After mice was placed on the plus maze, the time spent in the open arms (“time in open arm”), the number of mice entering the open arms (“number of open arm entry”), and the total movement (“number of center crossing”) were measured for the first 15 min. The results for the last 10 min were used for analysis.

[6] = system: neurons in the arcuate nucleus; experiment: c-fos immunohistochemistry, arcuate nucleus, after ventricular administration; assay type: in vivo, mice; settings: 0.4, 4, and 40 μg to the ventricle, 1 h
POMC neurons = experiment: Signaling, POMC expression and α-MSH in cultured POMC neurons (Western blotting, mRNA); assay type: cell-based; settings: Fmoc sextuple mutant 1 μM, insulin 10 nM
Protocol: An increase in the potency of appetite-regulating brain neurons by administration of the GALR2 agonist was determined by immunohistochemistry (IHC). […] POMC neurons known to regulate appetite in the arcuate nucleus were cultured in vitro, treated with the Fmoc sextuple mutant (1 μM) and 10 nM insulin, washed with PBS, and lysed by the addition of 100 μl of lysis buffer (0.1% triton X-100, 0.2M Tris, pH 8.0) at room temperature for 20 min.
Proteins were extracted from cells and analyzed by Western blotting. […] POMC neurons were treated the GALR2 agonist and mRNA was then extracted. Increases in the number of the POMC neurons and the level of α-MSH were observed (FIGS. 11B to 11E).

[7] = system: neurons in the amygdala and arcuate nucleus; experiment: Neuron activity after nasal inhalation of GALR2 agonist; assay type: in vivo, mice; settings: 8 μg nasal inhalation, 1-2 h; like intracerebroventricular injection
Protocol: 1-2 h after nasal inhalation, the results were recorded. The results of nasal inhalation were compared with those of intracerebroventricular injection.

[8] = 3 μg into the third ventricle, 24 h, compared to spexin-administered mice and control
[9] = concentrations of 0.5, 1, and 3

With `CC(C)C[C@H](NC(=O)[C@H](C)NC(=O)[C@H](C)NC(=O)[C@H](CC(N)=O)NC(=O)[C@@H]1CCCN1C(=O)[C@@H](NC(=O)[C@H](Cc1c[nH]c2ccccc12)NC(=O)[C@H](N)CC(N)=O)[C@@H](C)O)C(=O)N[C@@H](Cc1ccc(O)cc1)C(=O)N[C@@H](CC(C)C)C(=O)N[C@@H](Cc1ccccc1)C(=O)NCC(=O)N1CCC[C@H]1C(=O)N[C@@H](CCC(N)=O)C(N)=O` [dN1-Qu] (H-[dN]WTPNAALYLFGPQ-NH2) as the compound, how does the “specificity for GALR2” value (GALR2) read?
The value was “specificity for GALR2”.

And the “c-fos expressing neurons in the amygdala” value (neurons in the amygdala)?
Its value is “increase in the number of c-fos expressing neurons”.

And the “neurons in other emotion-regulating brain regions” value (neurons in the amygdala)?
The value was “not activated”.

What about the “% distance in center” value ([1]; first 5-min period) of the same compound?
The value was “increased”.

What about the total distance ([1]; first 5-min period) of the same compound?
The total distance was “no difference”.

What about the “% distance in center” value ([1]; second 5-min period) of the same compound?
The value was “increased”.

What about the “total consumption of the fluids” value [2] of the same compound?
Its value is “no difference”.

And the consumption of sucrose ([2]; 1% sucrose solution)?
Its consumption of sucrose is “considerably reduced”.

What about the “sucrose preference (consumed sucrose solution in total fluid consumption)” value ([2]; 1% sucrose, 0.4, 4, and 40 μg lateral ventricle, control ~70%) of the same compound?
The value was no more than 60%.

What about the “stability in serum (100% FBS)” value [3] of the same compound?
Its value is “increased stability”.

What about the “change in body weight” value [4, 8] of the same compound?
Its value is “weight loss was effectively induced”.

What about the dietary intake [4, 8] of the same compound?
The dietary intake was “significantly decreased”.

And the “number of center crossing” value [5]?
Its value is “no difference”.

And the “number of open arm entry” value [5]?
The value was “increased”.

What about the “time in open arm” value [5] of the same compound?
Its value is “increased”.

And the “c-fos expressing neurons in the arcuate nucleus” value [6]?
Its value is “increase in the number of c-fos expressing neurons”.

For `CC(C)C[C@H](NC(=O)[C@H](C)NC(=O)[C@H](C)NC(=O)[C@H](CC(N)=O)NC(=O)[C@@H](C)NC(=O)[C@@H](NC(=O)[C@H](Cc1c[nH]c2ccccc12)NC(=O)[C@H](CC(N)=O)NC(=O)OCC1c2ccccc2-c2ccccc21)[C@@H](C)O)C(=O)N[C@@H](Cc1ccc(O)cc1)C(=O)N[C@@H](CC(C)C)C(=O)N[C@@H](Cc1ccccc1)C(=O)NCC(=O)N1CCC[C@H]1C(=O)N[C@H](CCC(N)=O)C(N)=O` [Fmoc-se] (Fmoc-NWT[dA]NAALYLFGP[dQ]-NH2), which “specificity for GALR2” value (GALR2) is on record?
Its value is “specificity for GALR2”.

What about the AKT phosphorylation (POMC neurons) of the same compound?
Its AKT phosphorylation is “only the ERK pathway was phosphorylated”.

And the ERK phosphorylation (POMC neurons)?
Its ERK phosphorylation is “phosphorylated”.

And the “stability in serum (100% FBS)” value [3]?
Its value is “increased stability”.

Which AKT phosphorylation (POMC neurons) does the source give for insulin [reference compound] here?
The AKT phosphorylation was “phosphorylated”.

What about the ERK phosphorylation (POMC neurons) of the same compound?
Its ERK phosphorylation is “phosphorylated”.

What does the source list for “PEG-NWTdANAALYLFGPdQ-NH2 ({PEG}-NWT[dA]NAALYLFGP[dQ]-NH2; reading uncertain) [PEG-se]”?
specificity for GALR2 (GALR2): specificity for GALR2; stability in serum (100% FBS) [3]: increased stability; effect on dietary intake after GALR2 antagonist M871 ([4]; 3 μg following 10 μg of M871): disappeared; effect on weight loss after GALR2 antagonist M871 ([4]; 3 μg following 10 μg of M871): disappeared; dietary intake [4, 9]: dietary intakes and weight losses were observed; weight loss [4, 9]: dietary intakes and weight losses were observed; activity of neurons in the amygdala and arcuate nucleus [7]: increase the activity of neurons
